# Laboratory results published in paper PMC7669869, “AdipoR1/AdipoR2 dual agonist recovers nonalcoholic steatohepatitis and related fibrosis via endoplasmic reticulum-mitochondria axis” (Nature Communications, 2020).
# Values joined by “and” are separate entries in the source; they are usually repeats but may differ in a detail not shown here. Equal entries are not always repeated. Non-standard residues stand in square brackets, D forms with d. Residues, ends and D or L forms follow the SMILES beside them. Nva = CCC[C@H](N)C(=O)O
# Legend:
# [1] = Serum stability assay (RP-HPLC); format: in vitro ADME; settings: for Fraction of peptide remaining, Supplementary Figure 5: mouse serum
# Experimental: The stability of candidate peptides was investigated following procedure. […] Ice-cold acetonitrile was added to terminate the reaction. Vortex and stand for 1 min, deionized water with 1% TFA was added to the mixture to further terminate the reaction. Mixtures were then centrifuged (13,000g, 10 min) to obtain the supernatant. RP-HPLC-MS was applied to analysis the content of candidate peptides. The serum stability of candidate peptides was represented as the retention rate of each peptide.
# HepG2 cells = test: PA induced lipid accumulation, Oil Red O staining; format: cell-based, human; settings: HepG2, 0.25 mM PA + 200 μM peptide, 24 h; in words
# Experimental: Hepatoma carcinoma cell line HepG2 and human hepatic activated stellate cell line LX2 used in this study were purchased from Type Culture Collection of the Chinese Academy of Sciences (Shanghai, China). Cells were cultured in Dulbecco’s modified Eagle’s medium (DMEM) with 10% fetal bovine serum (FBS), supplemented with 1% penicillin–streptomycin (ThermoFisher Scientific, USA) at 37 °C in a humidified atmosphere of 5% CO2. In PA (Sigma, USA) induced lipid accumulation cell model, HepG2 cells were seeded into a 6-well plate at 5E5 cells per well. 0.25 mM PA and/or 200 μM candidate peptides were co-incubated with cells for 24 h. Then Oil Red O staining was performed to evaluate the accumulation of lipid droplets. BSA (Sigma, USA) was used in this experiment as the negative control. For LX2 cells, 2E5 cells were seeded, then the adherent cells were exposed to 200 μM candidate peptides for another 48 h. Next, the cell protein was obtained and western blotting was performed. Candidate peptides were diluted in DMEM in a stock concentration of 1 M.
# HFD induced NASH mice [2] = test: HFD induced NASH (NAFLD) mice: weight gain, liver appearance; format: in vivo, mouse; settings: JT003 500 μg kg−1 i.p. daily 4 weeks, vs HFD, in words
# Experimental: Male C57BL/6J mice of 6–8 weeks of age (20–24 g) were used in these experiments including the NAFLD model and liver fibrosis model. The mice were purchased from Guangdong Medical Laboratory Animal Center and housed in standard isolator cages and maintained on a room temperature of 25 °C and a 12 h:12 h light/dark cycle. At the end of the experiments, mice were fasted 8 h prior to sacrifice. Liver tissue and/or epididymal adipose tissue were flash frozen in liquid nitrogen (with or without RNAlater (TransGen Biotech, China)) and stored at −80 °C for future use, or fixed in 10% paraformaldehyde for histological assays. Blood samples were obtained from the posterior venous plexus of the eyes of anesthetized mice, Blood was separated by centrifugation at 1000g for 15 min Serum was then stored at −80 °C. The ethical approval has been obtained from Animal Care and Use Committee of the Sun Yat-sen University. All animals were maintained in pathogen-free conditions and cared for in accordance with policies and certification of the Association for Assessment and Accreditation of Laboratory Animal Care International (AAALAC International).
# The NASH model was conducted with feeding a HFD for 16 weeks combine with a MCD diet (Methionine/Choline Deficient Diet, Medicience, China) in the last 4 weeks. […]
# HFD induced NASH mice [3] = test: HFD mice: insulin tolerance test (ITT); format: in vivo, mouse; settings: JT003 500 μg kg−1, in words
# Experimental: For insulin tolerance test, one week after OGTT assay, 6 h fasted mice were treated with JT003, and the baseline blood glucose level was measured. An hour later, 0.25 U kg^−1 insulin (Novolin R, Denmark) were intraperitoneal injection to mice, blood glucose level was measured at 15, 30, 45, 60 min
# [4] = tested on: CCl4 induced liver fibrosis mice; test: CCl4 mice: serum ALT, AST and liver HYP; format: in vivo, mouse; settings: Figure 5b; CCl4 + JT003 group; single animals, n = 5
smiles,measurement,setting,value
CCC[C@H](NC(=O)[C@@H]1CCCN1)C(=O)N[C@@H](CC(C)C)C(=O)N[C@@H](Cc1ccc(O)cc1)C(=O)N[C@@H](Cc1ccc(O)cc1)C(=O)N[C@@H](Cc1ccccc1)C(=O)N[C@@H](C)C(N)=O [JT003] (H-P[Nva]LYYFA-NH2),"Fraction of peptide remaining, Supplementary Figure 5","[1]; time 0 (unit not given), replicate 1",0.9904
same,"Fraction of peptide remaining, Supplementary Figure 5","[1]; time 0 (unit not given), replicate 2",1.127
same,"Fraction of peptide remaining, Supplementary Figure 5","[1]; time 0 (unit not given), replicate 3",0.9633
same,"Fraction of peptide remaining, Supplementary Figure 5","[1]; time 1 (unit not given), replicate 2",0.7303
same,"Fraction of peptide remaining, Supplementary Figure 5","[1]; time 1 (unit not given), replicate 3",0.7063
same,"Fraction of peptide remaining, Supplementary Figure 5","[1]; time 2 (unit not given), replicate 1",0.4963
same,"Fraction of peptide remaining, Supplementary Figure 5","[1]; time 2 (unit not given), replicate 2",0.5281
same,"Fraction of peptide remaining, Supplementary Figure 5","[1]; time 2 (unit not given), replicate 3",0.4921
same,"Fraction of peptide remaining, Supplementary Figure 5","[1]; time 3 (unit not given), replicate 1",0.4291
same,"Fraction of peptide remaining, Supplementary Figure 5","[1]; time 3 (unit not given), replicate 2",0.4706
same,"Fraction of peptide remaining, Supplementary Figure 5","[1]; time 3 (unit not given), replicate 3",0.4115
same,"Fraction of peptide remaining, Supplementary Figure 5","[1]; time 4 (unit not given), replicate 1",0.3431
same,"Fraction of peptide remaining, Supplementary Figure 5","[1]; time 4 (unit not given), replicate 2",0.3616
same,"Fraction of peptide remaining, Supplementary Figure 5","[1]; time 4 (unit not given), replicate 3",0.3877
same,"Fraction of peptide remaining, Supplementary Figure 5","[1]; time 5 (unit not given), replicate 1",0.4378
same,"Fraction of peptide remaining, Supplementary Figure 5","[1]; time 5 (unit not given), replicate 2",0.3169
same,"Fraction of peptide remaining, Supplementary Figure 5","[1]; time 5 (unit not given), replicate 3",0.3694
same,"Fraction of peptide remaining, Supplementary Figure 5","[1]; time 6 (unit not given), replicate 1",0.3549
same,"Fraction of peptide remaining, Supplementary Figure 5","[1]; time 6 (unit not given), replicate 2",0.2659
same,"Fraction of peptide remaining, Supplementary Figure 5","[1]; time 6 (unit not given), replicate 3",0.2904
same,"Fraction of peptide remaining, Supplementary Figure 5","[1]; time 8 (unit not given), replicate 2",0.272
same,"Fraction of peptide remaining, Supplementary Figure 5","[1]; time 8 (unit not given), replicate 3",0.2915
same,"Fraction of peptide remaining, Supplementary Figure 5","[1]; time 12 (unit not given), replicate 2",0.1256
same,"Fraction of peptide remaining, Supplementary Figure 5","[1]; time 12 (unit not given), replicate 3",0.2003
same,"remaining at 12 h, 5 mM","[1]; mouse, 5 mM peptide, 37 °C, 12 h, triplicate, mean, read-out: retention rate after incubation in serum",~22%
same,lipid droplets accumulation caused by PA (Oil Red O),HepG2 cells,exhibited the best potential
same,weight gain,HFD induced NASH mice [2],significantly reduced the weight gain
same,"HFD-induced insulin resistance, insulin tolerance test",HFD induced NASH mice [3],obviously ameliorated
same,alt Enzymatic Activity,[4],182.294 U/L and 119.931 U/L and 31.0646 U/L and 95.3544 U/L and 50.0405 U/L
